Earlier results in US20240366505A1, “Liquid Resin Extended-Release Oral Naltrexone Formulation for Treating Autism-Related Disorders” (AARDVARK THERAPEUTICS, INC., priority 2022, published 2024).
Like-named read-outs stand apart in the source and are kept apart here.

Legend:
[1] = single 50 mg REVIA tablet
[2] = 6-β-naltrexol; 50 mg REVIA tablets once daily for 7 days
children with ASD = settings: 1.0 mg/kg single daily immediate release oral dose, 12 or 14 days
ASD children = settings: 20 mg immediate release per day for 4 weeks
[3] = in vivo
[4] = 50 mg once daily
autistic behavior = settings: 0.5, 1.0 and 2.0 mg/kg immediate release oral

| SMILES | AUC(0-inf) ([1]; 6-β-naltrexol, mean (CV%)) [ng·h/mL] | Cmax ([1]; 6-β-naltrexol, mean (CV%)) [ng/mL] | Tmax ([1]; 6-β-naltrexol, mean (CV%)) [h] | AUC(0-τ) [2] [ng·h/mL] | Cmax [2] [ng/mL] | changes in parent measures (CGI, Conners IHF, SE-Restlessness) and Teacher CGI (children with ASD) | CGI ratings of the teachers (ASD children) | behavior ratings completed by the teachers (Aberrant Behavior Checklist (ABC) scores) (ASD children) | incidence of difficulty sleeping, anxiety, nervousness, abdominal pain/cramps, nausea and/or vomiting, low energy, joint/muscle pain, headache [3] | incidence of loss of appetite, diarrhea, constipation, thirstiness, increased energy, feeling down, irritability, dizziness, skin rash, delayed ejaculation, erectile dysfunction, chills [3] | Tmax ([1]; naltrexone, Mean (CV %)) [h] | accumulation (after 100 mg daily doses) | excretion of parent drug and metabolites by the kidney (human, in vivo) | dose absorbed from the gastrointestinal tract (human, in vivo, po) | urinary excretion of unchanged naltrexone (immediate release formulations) | dose proportionality of AUC and Cmax (over the range of 50-200 mg) | rate of early discontinuation of treatment versus placebo [4] | adverse effects versus placebo ([4]; weeks 1, 5 and 8) | effect on autistic behavior and gaze aversion (autistic behavior) |
| --- | --- | --- | --- | --- | --- | --- | --- | --- | --- | --- | --- | --- | --- | --- | --- | --- | --- | --- | --- |
| Oc1ccc2c3c1O[C@H]1[C@H](O)CC[C@@]4(O)[C@@H](C2)N(CC2CC2)CC[C@]314 [6-β-naltrexol] | 717.3 | 85.6 | 1.05 | 788 ± 134.8 | 96.1 ± 21.05 |  |  |  |  |  |  |  |  |  |  |  |  |  |  |
| O=C1CC[C@@]2(O)[C@H]3Cc4ccc(O)c5c4[C@@]2(CCN3CC2CC2)[C@H]1O5 [naltrexone, 17-(cyclopropylmethyl)-4,5α-epoxy-3,14-dihydroxy-morphinan-6-one] |  |  |  |  |  | achieved statistical significance | Significant difference | significant changes | Greater than 10% | Less than 10% | 1.07 | do not accumulate | 53-79 % of the dose | approximately 96% | less than 2 % of an oral dose | dose-proportional | greater rate | significantly more adverse effects | reverse autistic behavior and gaze aversion |
